This is an account of results in PMC8070004, “Isorhamnetin Ameliorates Dry Eye Disease via CFTR Activation in Mice” (International Journal of Molecular Sciences, 2021).

The target in data set [1] is T1, hERG potassium channel (Homo sapiens, UniProt Q12809).
T1 construct: expressed in transfected cells; host or cells: HEK293 / HEK293T
Briefly: FluxOR potassium ion channel assay in HEK293T cells expressing hERG. The class given is cell-based. Conditions: 30 μM pretreated for 10 min. How it is done: HEK293 cells stably expressing human Kv11.1 (hERG) were plated in 96-well plates. After 48 h, the cells were incubated at 28 °C for 4 h to enhance membrane expression of hERG. The culture medium was replaced with 80 μL/well of FluxOR (Invitrogen) loading buffer and incubated for 1 h at 37 °C in the dark. After removal of the loading buffer, 100 µL of assay buffer were added to each well. To measure the effect of isorhamnetin on hERG channels, the cells were pretreated with isorhamnetin for 10 min. FluxOR fluorescence (excitation/emission: 490/525 nm) was recorded for 4 s before addition of 20 μL of stimulus buffer containing thallium ions, and the fluorescence was monitored. FluxOR fluorescence was recorded and analyzed using FLUOstar Omega Microplate Reader (BMG Labtech) and MARS Data Analysis Software (BMG Labtech). All buffers were prepared according to the manufacturer’s instructions.
A general note: Block of hERG is tested as a sign of cardiac risk.

The target of data set [2] is WT-CFTR (Homo sapiens, UniProt P13569). Nature of the data set: Whole-cell patch clamp in CHO-K1 cells expressing WT-CFTR. The class given is cell-based. On the set-up: expressed in transfected cells; host or cells: CHO-K1. Conditions: 30 μM isorhamnetin; linear current/voltage relationship. How it is done:
Whole-cell, patch clamp recordings were performed on CFTR-expressing CHO cells. The bath solution contained (in mM) 140 NMDG-Cl, 1 CaCl2, 1 MgCl2, 10 glucose, and 10 HEPES (pH 7.4). The pipette solution contained (in mM) 130 CsCl, 0.5 EGTA, 1 MgCl2, 1 Tris-ATP, and 10 HEPES (pH 7.2). […] Seal resistances were between 3 and 10 GΩ. After establishing the whole-cell configuration, CFTR was activated by forskolin and/or isorhamnetin. […] Recordings were made at room temperature using an Axopatch-200B (Axon Instruments, San Jose, CA, USA). Currents were digitized with a Digidata 1440A converter (Axon Instruments), filtered at 5 kHz, and sampled at 1 kHz.

Data set [3] concerns the target T2, human CFTR (Homo sapiens, UniProt P13569).
T2 construct: expressed in transfected cells; host or cells: CHO-K1
Nature of the data set: YFP quenching assay in CHO-K1 cells expressing CFTR and halide sensor YFP. The class given is cell-based. As to conditions: isorhamnetin applied 10 min prior to I- addition. How it is done:
CHO cells expressing wild-type CFTR with the halide sensor YFP-H148Q/I152L were plated in 96-well, black-walled microplates (Corning Inc., Corning, NY, USA) at a density of 2 × 10^4 cells per well. CHO-WT-CFTR-YFP cells were incubated for 48 h at 37 °C. Assays were done using FLUO star Omega microplate reader (BMG Labtech, Ortenberg, Germany) and MARS Data Analysis Software (BMG Labtech). Briefly, each well of a 96-well plate was washed three times in PBS (200 µL/wash). Then, 100 µL PBS was added to each well. Test compounds (1 µL) were added to each well at final concentration of 25 µM. After 10 min, 96-well plates were transferred to the microplate reader preheated to 37 °C for fluorescence assay. Each well was assayed individually for CFTR-mediated I^- influx by recording fluorescence continuously (400 ms per point) for 2 s (baseline). Then, 100 µL of 140 mM I^- solution were added at 2 s and then YFP fluorescence was recorded for 14 s. Initial iodide influx rate was determined from the initial slope of fluorescence decrease, by nonlinear regression, following infusion of iodide.

Data set [4] relates to pro-inflammatory cytokine mRNA expression. Nature of the data set: Real-time PCR of pro-inflammatory cytokines in cornea and conjunctiva of dry eye mice. Format: in vivo, mouse. The protocol: Eight-week-old C57BL/6 mice were used for this experiment. Experimental dry eye was induced by subcutaneous injection of 0.5 mg/100 μL scopolamine hydrobromide (Sigma-Aldrich, St. Louis, MO, USA) three times a day with a standard desiccating environment created by placing the mice in a chamber with a continuous air flow (15 L/min) in a room at 25 °C with an ambient humidity of 12%. Fourteen days after the initiation of experimental dry eye, the mice were treated or not with 5-μL drop of ophthalmic formulation (30 μM isorhamnetin in PBS with 0.1% DMSO) or vehicle three times a day. Eight days after the initiation of the formulation treatment, scopolamine injection was stopped. Ten days after the initiation of the formulation treatment, measurement of tear volume, corneal disruption, and relative mRNA level was performed.
The mRNA expressions of IL-1β, IL-6, IL-8, TNF-α, IFN-γ, and MMP-9 in cornea and conjunctiva of the dry eye model-treated mice were measured by qPCR. RNA was isolated using TRIzol reagent (Invitrogen, Carlsbad, CA, USA), and 1 μg of RNA was used to synthesize complementary DNA (cDNA) using RNA to cDNA EcoDryTM premix (TaKaRa, Shiga, Japan) according to the manufacturer’s protocol. The relative mRNA levels were measured in ViiA7 (Applied Biosystems, Foster City, CA, USA) using SYBR Green PCR Master Mix (Applied Biosystems). The primer sequences used were as follows: GAPDH, sense (5-[…]-3) and antisense (5-[…]-3), size of PCR product 155 base pairs; IL-1β, sense (5-[…]-3) and antisense (5-[…]-3), size of PCR product 199 base pairs; IL-6, sense (5-[…]-3) and antisense (5-[…]-3), size of PCR product 131 base pairs; IL-8, sense (5-[…]-3) and antisense (5-[…]-3), size of PCR product 190 base pairs; TNF-α, sense (5-[…]-3) and antisense (5-[…]-3), size of PCR product 166 base pairs; IFN-γ, sense (5-[…]-3) and antisense (5- […]-3), size of PCR product 156 base pairs; and MMP-9, sense (5-[…]-3) and antisense (5-[…]-3), size of PCR product 190 base pairs. The mRNA levels of the cytokines and MMP-9 were normalized to GAPDH levels and the fold-change in gene expression was determined by using 2^-ΔΔCT method.

The test system of data set [5] is CD-1 mice. Nature of the data set: Tear volume by phenol red thread tear test in normal CD-1 mice. The class given is in vivo, mouse. As to conditions: single 2.5 μL ocular delivery, 30 µM isorhamnetin. The protocol:
Tear volume was measured using phenol red threads (Zone-Quick, Oasis Medical, Glendora, CA, USA) by placing them in the lateral canthi of normal CD-1 or dry eye model-treated BL6 mice for 10 s using forceps. Tear volume was measured using a Vernier caliper as the length of thread wetting under a microscope. For normal CD-1 mice, serial measurements were done to evaluate compound pharmacodynamics compared to the vehicle after topical application of a single, 2.5-μL drop of compound formulations containing 20 μM forskolin, 30 μM isorhamnetin, or 20 μM CFTRinh-172 in PBS with 0.1% DMSO.

[6] abbreviates: cornea of the dry eye mouse model.

T1 sequence (Q12809 whole entry): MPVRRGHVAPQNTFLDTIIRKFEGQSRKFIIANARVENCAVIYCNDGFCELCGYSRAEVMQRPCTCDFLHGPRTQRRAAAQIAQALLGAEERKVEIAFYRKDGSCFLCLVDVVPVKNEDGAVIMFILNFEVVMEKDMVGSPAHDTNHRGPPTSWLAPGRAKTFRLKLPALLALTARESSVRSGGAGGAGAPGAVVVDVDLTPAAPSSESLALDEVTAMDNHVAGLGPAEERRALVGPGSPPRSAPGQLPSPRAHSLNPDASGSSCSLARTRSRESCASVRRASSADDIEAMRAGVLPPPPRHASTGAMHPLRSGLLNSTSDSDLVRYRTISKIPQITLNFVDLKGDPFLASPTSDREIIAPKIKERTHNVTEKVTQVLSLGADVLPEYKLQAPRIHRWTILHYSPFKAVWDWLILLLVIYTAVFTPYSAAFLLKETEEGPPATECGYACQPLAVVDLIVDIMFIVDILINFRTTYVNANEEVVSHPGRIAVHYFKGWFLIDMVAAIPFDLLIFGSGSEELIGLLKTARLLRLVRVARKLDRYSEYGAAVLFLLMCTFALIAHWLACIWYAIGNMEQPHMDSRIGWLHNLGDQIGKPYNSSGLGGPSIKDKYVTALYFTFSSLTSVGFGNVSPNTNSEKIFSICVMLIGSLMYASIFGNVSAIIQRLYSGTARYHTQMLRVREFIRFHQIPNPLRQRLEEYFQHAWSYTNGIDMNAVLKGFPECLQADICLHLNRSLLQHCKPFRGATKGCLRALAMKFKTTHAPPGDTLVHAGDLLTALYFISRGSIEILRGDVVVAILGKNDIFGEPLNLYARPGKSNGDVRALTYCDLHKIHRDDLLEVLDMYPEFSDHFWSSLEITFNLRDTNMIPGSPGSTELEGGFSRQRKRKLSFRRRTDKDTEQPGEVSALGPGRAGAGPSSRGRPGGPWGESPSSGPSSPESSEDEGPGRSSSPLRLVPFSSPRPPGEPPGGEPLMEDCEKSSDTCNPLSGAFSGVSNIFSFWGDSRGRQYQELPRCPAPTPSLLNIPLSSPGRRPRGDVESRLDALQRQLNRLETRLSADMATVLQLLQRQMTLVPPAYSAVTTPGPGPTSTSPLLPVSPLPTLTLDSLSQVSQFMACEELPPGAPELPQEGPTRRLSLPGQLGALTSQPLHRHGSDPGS
Sequence of WT-CFTR (P13569 whole entry): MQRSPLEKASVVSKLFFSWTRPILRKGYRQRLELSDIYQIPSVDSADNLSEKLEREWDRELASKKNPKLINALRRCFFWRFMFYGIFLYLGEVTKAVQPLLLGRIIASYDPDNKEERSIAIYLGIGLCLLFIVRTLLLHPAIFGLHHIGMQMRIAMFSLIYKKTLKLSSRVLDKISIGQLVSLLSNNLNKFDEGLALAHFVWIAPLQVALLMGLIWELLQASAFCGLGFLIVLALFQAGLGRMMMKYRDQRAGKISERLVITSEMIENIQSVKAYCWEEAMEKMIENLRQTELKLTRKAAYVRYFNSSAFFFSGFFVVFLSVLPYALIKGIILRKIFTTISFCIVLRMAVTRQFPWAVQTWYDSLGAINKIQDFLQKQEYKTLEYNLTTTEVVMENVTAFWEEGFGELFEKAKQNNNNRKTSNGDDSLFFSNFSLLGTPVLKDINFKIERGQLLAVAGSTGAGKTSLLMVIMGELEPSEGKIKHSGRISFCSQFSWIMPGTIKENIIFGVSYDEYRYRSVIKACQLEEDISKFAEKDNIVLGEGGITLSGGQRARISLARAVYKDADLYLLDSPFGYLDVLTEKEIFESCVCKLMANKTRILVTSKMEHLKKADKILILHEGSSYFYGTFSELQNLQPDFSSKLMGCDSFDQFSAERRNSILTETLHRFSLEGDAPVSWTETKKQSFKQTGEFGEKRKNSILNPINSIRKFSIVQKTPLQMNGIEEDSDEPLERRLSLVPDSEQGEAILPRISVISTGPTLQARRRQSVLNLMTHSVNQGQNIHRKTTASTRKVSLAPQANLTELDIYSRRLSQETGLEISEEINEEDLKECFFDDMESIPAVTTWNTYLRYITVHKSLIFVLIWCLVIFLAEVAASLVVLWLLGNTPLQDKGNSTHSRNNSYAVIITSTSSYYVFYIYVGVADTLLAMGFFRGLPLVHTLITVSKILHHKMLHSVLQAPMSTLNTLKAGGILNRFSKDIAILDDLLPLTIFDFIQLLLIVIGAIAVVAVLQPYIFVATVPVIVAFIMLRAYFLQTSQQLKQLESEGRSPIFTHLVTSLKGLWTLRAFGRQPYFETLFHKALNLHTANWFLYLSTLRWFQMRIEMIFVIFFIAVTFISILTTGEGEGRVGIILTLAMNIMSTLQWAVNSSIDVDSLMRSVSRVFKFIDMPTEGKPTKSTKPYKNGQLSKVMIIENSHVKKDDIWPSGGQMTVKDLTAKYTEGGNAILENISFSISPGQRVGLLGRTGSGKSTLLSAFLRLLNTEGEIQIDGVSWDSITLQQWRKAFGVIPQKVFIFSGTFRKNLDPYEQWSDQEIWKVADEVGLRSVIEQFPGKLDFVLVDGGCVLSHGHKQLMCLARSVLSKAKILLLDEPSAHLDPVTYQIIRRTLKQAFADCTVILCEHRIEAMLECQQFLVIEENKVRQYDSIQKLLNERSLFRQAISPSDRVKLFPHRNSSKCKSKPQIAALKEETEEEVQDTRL
T2 sequence (P13569 whole entry): as above

Regarding `COc1cc(-c2oc3cc(O)cc(O)c3c(=O)c2O)ccc1O` [isorhamnetin], the hERG channel activity entry in data set [1] is “did not affect”. Moreover, in data set [2], the “CFTR Cl- currents (whole-cell)” value is “fully activated”. In addition, the “CFTR chloride channel activity (YFP quenching)” value in data set [3] is given as “significantly increased”. Further, in data set [4] (setting [6]), the IL-1β expression result was “significantly reduced”, the IL-8 expression entry is “significantly reduced” and the TNF-α expression result is “significantly reduced”. The “mRNA expression of cytokines in cornea and conjunctiva” value in data set [4] (dry eye mice treated with isorhamnetin for 10 days) is reported as “strongly reduced”. In addition, in data set [5], the tear volume entry is given as “significantly increased”.
